Laboratory results reported in patent US12428623B2, “Generation of midbrain-specific organoids from human pluripotent stem cells” (AGENCY FOR SCIENCE, TECHNOLOGY AND RESEARCH, priority 2016, dated 2025).

Columns and labels:
Type in all cases: cell-based
[1] = tested on: neuron inside a human midbrain-like organoid; assay: Whole cell patch clamp recording of spontaneous postsynaptic currents in hMLO neurons; conditions: for spontaneous excitatory postsynaptic currents (sEPSCs): neuron inside hMLO at day 80, CNQX and AP5 applied together (FIG. 4F, recording 2)
Method: Whole cell patch clamp recording techniques were used to measure the intrinsic properties of neurons within human midbrain-like organoids. Each human midbrain-like organoid was placed in a chamber and submerged beneath continuously perfused artificial CSF (aCSF) saturated with 95% O2 and 5% CO2 at 30 to 32° C. Patch pipettes (2 to 4 MΩ) were filled with an intracellular solution containing (in mM): Potassium methanesulfonate 135, KCl 10, HEPES 10, EGTA 1 Na2ATP 2; 290 mOsm; pH was adjusted to between 7.2 to 7.4 with KOH. Whole cell recordings were performed using IR-DIC visualization techniques with an Olympus BX51WI upright microscope, using a ×60 water immersion lens. Signals were recorded using an MultiClamp 700B amplifier, filtered at 3 kHz using a Bessel filter, and digitized at 10 kHz with a Digidata 1322A analog-to-digital (A/D) board (Molecular Devices, Sunnyvale, CA). To measure Na^+ currents and K^+ currents, voltage steps (500 msec duration) were applied from a holding potential of −70 mV to a range of test potentials between −50 and +90 mV (10 mV increments). For excitability test, a series of current pulses (500 msec) of increasing amplitude (5 pA steps) were injected to make the current-firing frequency relationship. Spontaneous excitatory postsynaptic currents (sEPSCs) were collected at a holding potential of −70 mV. Evoked excitatory postsynaptic currents (eEPSCs) was induced by tungsten wire electrodes placed about 300 μm away from the recording neuron within the hMLO.

[2] = tested on: human midbrain-like organoids (hMLOs); assay: Neuromelanin-like granule formation in human midbrain-like organoids (bright field, Fontana-Masson staining); conditions: for formation of neuromelanin-like granules: 50 μM treatment, bright field images and Fontana-Masson stained sections (FIG. 3G)
Method: For generation of human midbrain-like organoids, human embryonic stem cell lines were used at less than 40 passages. The human embryonic stem cells were dissociated from intact colonies to single cells with TrypLE Express (Life Technologies), and 10,000 cells were plated in each well of low-cell-adhesion 96-well culture plate with V-bottomed conical wells (Sumitomo Bakelite) to form uniform EBs in neuronal induction medium containing DMEM/F12:Neurobasal (1:1), 1:100 N2 supplement (Invitrogen), 1:50 B27 without vitamin A (Invitrogen), 1% GlutaMAX (Invitrogen), 1% minimum essential media-nonessential amino acid (Invitrogen), and 0.1% β-mercaptoethanol (Invitrogen) supplemented with 1 μg/ml Heparin (Sigma-Aldrich), 10 μM SB431542 (Stemgent), 200 ng/ml Noggin (Prospec), 0.8 μM CHIR99021 (Reagents Direct), and 10 μM ROCK inhibitor Y27632 (Calbiochem). ROCK inhibitor was added for the first 48 hours and neuronal induction medium was changed on day 2. On day 4, human midbrain-like organoids were cultured with addition of 100 ng/ml SHH-C25II (R&D Systems) and 100 ng/ml FGF8 (R&D Systems) for midbrain patterning. After 3 days, the human midbrain-like organoids started to extrude neuroectodermal buds, media were completely removed and immediately 30 μl of growth factor reduced matrigel was added in each well by pipetting using pre-chilled 200 μl pipette tip. The matrigel embedded midbrain-like organoid was placed into 37° C. incubator for 30 minutes to allow the matrigel to solidify, and was grown in tissue growth induction medium containing Neurobasal, 1:100 N2 supplement (Invitrogen), 1:50 B27 without vitamin A (Invitrogen), 1% GlutaMAX (Invitrogen), 1% minimum essential media-nonessential amino acid (Invitrogen), and 0.1% β-mercaptoethanol (Invitrogen) supplemented with 2.5 μg/ml Insulin (Sigma-Aldrich), 200 ng/ml Laminin (Sigma-Aldrich), 100 ng/ml SHH-C25II (R&D Systems), and 100 ng/ml FGF8 (R&D Systems) for 24 h. […]

[3] = tested on: human cerebral organoids (hCOs); assay: Neuromelanin-like granule formation in human cerebral organoids; conditions: 50 μM for 10 days; human cerebral organoids (FIG. 7G)
Method: Human midbrain-like organoids were fixed in 4% paraformaldehyde (PFA) overnight, washed in PBS, embedded in paraffin block, and subsequently sectioned at 4 μm thickness. Next, hMLOsections were deparaffinized, hydrated with distilled water, and stained by Fontana-Masson staining kit (Abcam) according to manufacturer's protocol ([…] et al., 2011). Briefly, the sections were placed in ammoniacal silver solution and incubated in a 58 to 60° C. water bath for 30 to 60 minutes until the tissue sections had become yellowish/brown in colour. The tissue sections were washed with distilled water and incubated in gold chloride solution (0.2%) for 30 seconds. Next, the sections were incubated in gold chloride solution (0.2%) for 30 seconds and subsequently incubated with sodium thiosulfate solution (5%) for 2 minutes. Finally, the sections were incubated in nuclear fast red solution for 5 minutes for staining and mounting. Images were taken on an LSM710 confocal microscope or an Observer Z. 1 inverted microscope (Zeiss).

Molecule	spontaneous excitatory postsynaptic currents (sEPSCs) [1]	formation of neuromelanin-like granules [2]	also measured
N#Cc1cc2[nH]c(=O)c(=O)[nH]c2cc1[N+](=O)[O-] [CNQX]	blocked		
NCCc1ccc(O)c(O)c1 [dopamine, 3,4-dihydroxyphenethylamine]		accelerated	
N[C@@H](Cc1ccc(O)c(O)c1)C(=O)O [L-DOPA, L-3,4-dihydroxyphenylalanine]		accelerated	distribution of neuromelanin-like granules ([2]; L-DOPA 50 μM, hMLO at day 35, untreated hMLO at the same day showed none): robust distribution of neuromelanin-like granules was observed; neuromelanin (NM)-like granules or coloured deposits [3]: did not show any neuromelanin (NM)-like granules
picrotoxin			spontaneous inhibitory postsynaptic currents (sIPSCs) ([1]; neuron inside hMLO at day 80 (FIG. 4F, recording 3)): blocked
NC(CCCP(=O)(O)O)C(=O)O (stereo not shown) [AP5]	blocked		
